Measured values as given in patent US20050096360A1, “Inhibitors of semicarbazide-sensitive amine oxidase (SSAO) and VAP-1 mediated adhesion useful for treatment of diseases” (priority 2003, published 2005).
Where two headings read alike, the source gives them in different places.

Key:
[1] = tested on: adhesion of human PBMCs to rat HEC transfected with full-length human SSAO/VAP-1; assay: In vitro adhesion of PBMCs to SSAO/VAP-1-transfected high endothelial cells; assay type: cell-based; conditions: inhibitors at IC100 concentrations, antibody 10 μg/ml; 3 hr at 37° C.
Description: The studies in this Example were carried out in order to determine whether SSAO/VAP-1 transfected into endothelial cells retained the adhesion function and whether it played any role in the adhesion of freshly isolated human PBMCs to these cells. Moreover, the studies were also designed to determine whether blocking of SSAO/VAP-1 would have an impact on the level of adhesion between these two cell types. Adhesion assays were performed using cells labeled with the fluorescent dye Calcein-AM (Molecular Probes, OR, USA) as per the manufacturer's instructions. Briefly, rat lymph node high endothelial cells (HEC; isolation and culture was described in Ager, A. (1987) J. Cell Sci. 87: 133) were plated overnight in 96-well plates (2,000 cells/well). PBMCs (peripheral blood mononuclear cells) (1×10^7) were labeled with 1 ml of 10 μM Calcein-AM for 1 hr at 37° C., washed three times with RPMI, and added to the 96 well plates containing monolayers of HEC cells mock-transfected or transfected with full-length human SSAO/VAP-1 (60,000 PBMCs were plated per well containing 2,000 HEC cells). Adhesion was carried out for 3 hr at 37° C. Non-adherent cells were removed by washing three times with RPMI and fluorescence was measured in a fluorescence plate reader at an excitation wavelength of 485 nm and emission wavelength of 530 nm. Several controls were included, such as HEC cells and PBMCs (labeled and unlabeled) alone.
(§1) These studies were repeated using the adhesion assay as described above to evaluate the inhibitors of the invention. Adhesion blockers used included an anti-human VAP-1 monoclonal antibody (Serotec, Oxford, UK), neuramidase (a sialidase, because SSAO/VAP-1 is a sialoglycoprotein; Sigma), and several function-blocking antibodies to rat adhesion molecules (CD31-PECAM, CD54-ICAM-1, […]-P Selectin). […] Antibodies (10 μg/ml) and neuramidase (5 mU) were incubated with the HECs for 30 min at 37° C.; excess antibody was washed away prior to the addition of the labeled PBMCs. Small-molecule inhibitors were pre-incubated the same way at IC100 concentrations, but the amounts present in the supernatant were not washed away to preserve the IC100 concentration during the adhesion step.

EAE in C57BL/6 mice = assay: Experimental autoimmune encephalomyelitis (EAE), MOG 35-55; assay type: in vivo
Description: SSAO/VAP-1 is expressed on the endothelium of inflamed tissues/organs including brain and spinal cord. Its ability to support lymphocyte transendothelial migration may be an important systemic function of SSAO/VAP-1 in inflammatory diseases such as multiple sclerosis and Alzheimer's disease. An analysis of the use of SSAO inhibitors to treat inflammatory disease of the central nervous system (CNS) was performed through the use of an experimental autoimmune encephalomyelitis model (EAE) in C57BL/6 mice. EAE in rodents is a well-characterized and reproducible animal model of multiple sclerosis in human (Benson J. M. et al. (2000) J. Clin. Invest. 106:1031). Multiple sclerosis is a chronic immune-mediated disease of the CNS characterized by pachy perivenular inflammatory infiltrates in areas of demyelination and axonal loss. As an animal model, EAE can be induced in mice by immunization with encephalitogenic myelin antigens in the presence of adjuvant. The pathogenesis of EAE comprises presentation of myelin antigens to T cells, migration of activated T cells to the CNS, and development of inflammation and/or demyelination upon recognition of the same antigens.
Thirty female C57BL/6 mice were immunized subcutaneously (s.c). with myelin oligodendrocyte glycoprotein 35-55 (MOG peptide 35-55) in Complete Freund Adjuvant (CFA) on day 0, followed by i.p. injections of pertussis toxin (one pertussis toxin injection on day 0, a second pertussis toxin injection on day 2). Groups of 10 mice received either the allylamine compound mofegiline (AA, 10 mg/kg/dose, twice daily for 18 consecutive days), methotrexate (2.5 mg/kg/day, every other day (Mon., Weds., Fri.) till day 18) or vehicle control (twice/day for 18 consecutive days) all-starting from one day after the immunization and all administered i.p. Then animals were monitored for body weight, signs of paralysis and death according to a 0-5 scale of scoring system as follows: 1=limp tail or waddling gait with tail tonicity; 2=waddling gait with limp tail (ataxia); 2.5=ataxia with partial limb paralysis; 3=full paralysis of one limb; 3.5=full paralysis of one limb with partial paralysis of second limb; 4=full paralysis of two limbs; 4.5=moribund; 5=death. Results are shown in FIG. 2A, FIG. 2B, and FIG. 2C. […] (p=0.04 by repeated measure analysis to assess the treatment effect. Proper polynomial transformation, with the spacing corresponding to the collection days, was applied to test the time effect). Statistically significant differences in diseases severity between the AA and vehicle-treated groups, continued even after stopping compound administration and were observed until the end of the study (d25) .

C57B1/6 female mice = assay: Acute toxicity studies in mice; assay type: in vivo
Description: (§2) Intraperitoneal (i.p.) and intravenous (i.v.) LD50 values for the compounds of Examples 8 and 10, as well as mofegiline, the allylamine compound described in Example 18, were determined in mice. Six-week old C57B1/6 female mice were divided in groups of five and administered a single i.p or i.v. injection of compound dissolved in PBS (10-100 mg/kg in 100 ul i.v.; 30-500 mg/kg in 200 ul i.p.). Control groups were administered the same volume of PBS i.p. or i.v. Appearance and overt behavior were noted daily, and body weight was measured before compound administration (Day 1) and on Days, 3, 5 and 7. After seven days, animals were euthanized and their liver, spleen and kidneys weighted.
(§3) Acute toxicity effects for mofegiline included tremors (40 mg/kg i.v.; 100 mg/kg i.p.) and clonic convulsions and labored breathing (100 mg/kg i.v.; 200 mg/kg i.p.). […] All deaths occurred within 24 hours after drug administration. […] Thus, there is no indication of the cause of death for any of the compounds tested.

[2] = Acute toxicity studies in mice; assay type: in vivo; conditions: female, C57B1/6, mouse, in vivo, Day 7 values
Description: as §2, §3

SSAO = assay: IC100 concentrations of SSAO inhibitors used in the adhesion assay; assay type: biochemical; conditions: FIG. 7 legend
From the text: FIG. 7 depicts the effect of blockage of SSAO/VAP-1 on binding between peripheral blood mononuclear cells (PBMCs) and high endothelial cells (HEC). FIG. 7A is a control experiment showing the effect of various compounds used for treatment on the adhesion of PBMCs to mock-transfected high endothelial cells; a non-treated control is included for comparison (MNT). FIG. 7B is a control experiment showing the effect of various compounds used for treatment on the adhesion of PBMCs to high endothelial cells transfected with VAP-1; a non-treated control is included for comparison (VNT).
as §1

C#CCN(C)Cc1ccccc1 [Pargyline, pargyline]
number of PBMCs adherent to SSAO/VAP-1 transfected HECs [1]: no effect

NC/C(=C/F)CCc1ccc(F)cc1 [Mofegiline, mofegiline, reference compound]
disease severity (clinical score) (EAE in C57BL/6 mice; 10 mg/kg/dose i.p. twice daily for 18 days, p=0.04 vs vehicle): statistically significant reduction | disease incidence (mice affected) (EAE in C57BL/6 mice; 10 mg/kg/dose i.p. twice daily, dosing period up to day 18, vehicle 80%): 50% | body weight loss (EAE in C57BL/6 mice; 10 mg/kg/dose i.p. twice daily, dosing period, p=0.04): prevented | dose causing tremors (C57B1/6 female mice; i.p.): 100 mg/kg | dose causing convulsions and labored breathing (C57B1/6 female mice; i.p. (see Table 2)): 200 mg/kg | dose causing clonic convulsions and labored breathing (C57B1/6 female mice; i.v.): 100 mg/kg | dose causing tremors (C57B1/6 female mice; i.v.): 40 mg/kg | LD50 at 7 days ([2]; ip, single i.p. injection, read-out: LD50 intraperitoneal): 200 mg/kg | LD50 at 7 days ([2]; iv, single i.v. injection, read-out: LD50 intravenous): 70 mg/kg

NNC(N)=O [Semicarbazide, semicarbazide]
IC100 (SSAO) (SSAO): 500 µM

C#CCN(C)CCCOc1ccc(Cl)cc1Cl [Clorgyline, clorgyline]
number of PBMCs adherent to SSAO/VAP-1 transfected HECs [1]: no effect
